Experimental findings from patent US7250434B2, “CCK-1 receptor modulators” (Janssen Pharmaceutica N.V., priority 2003, dated 2007) are described below.

The structures appear in SMILES notation.

In general, Ki refers to the dissociation constant of the complex between target and ligand, obtained from inhibition or displacement. High values mean a looser hold on the target, low ones a stronger hold on the target.

This assay addresses T1, CCK-1 receptor (Homo sapiens, UniProt P32238).
T1 construct: expressed in transfected cells; membranes
T1 sequence (P32238 1-428): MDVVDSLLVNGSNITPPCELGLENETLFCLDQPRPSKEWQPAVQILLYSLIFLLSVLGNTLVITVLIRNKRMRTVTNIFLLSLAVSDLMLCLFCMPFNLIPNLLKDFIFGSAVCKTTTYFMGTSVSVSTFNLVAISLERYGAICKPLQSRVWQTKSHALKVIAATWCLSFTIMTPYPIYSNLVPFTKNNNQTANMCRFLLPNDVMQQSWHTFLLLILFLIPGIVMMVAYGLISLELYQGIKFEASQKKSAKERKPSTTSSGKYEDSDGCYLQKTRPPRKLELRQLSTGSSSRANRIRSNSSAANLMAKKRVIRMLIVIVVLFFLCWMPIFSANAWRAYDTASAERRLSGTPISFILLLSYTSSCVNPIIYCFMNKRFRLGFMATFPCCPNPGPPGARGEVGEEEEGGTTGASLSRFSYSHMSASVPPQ
In words: [125I]-BH-CCK-8S competition binding to membranes of CHO-K1 cells stably transfected with the CCK-1 receptor. The note with it: membranes of CCK-1 transfected CHO-K1 cells; 20 pM [125I]-BH-CCK-8S; 0.3 μM PD-134,308 present; 60 min at 21±3° C.; Cheng-Prusoff. Here is the method:
CHO-K1 cells that had undergone stable transfection with the CCK-1 receptor were grown in DMEM supplemented with L-glutamine (2 mM), penicillin (50 units/mL) and streptomycin (50 μg/mL). Cells were cultured under continuous G418 selection (2 mM) and were harvested using a rubber cell scraper. CHO-K1 cells were sub-cultured a maximum of ten times before being reseeded from the original stocks.
Membranes were prepared from the stably transfected CHO-K1 cells. Frozen cell pellets (−40° C.) were thawed in 14 mL of buffer A (10 mM HEPES, 130 mM NaCl, 4.7 mM KCl, 5 mM MgCl, 1 mM EGTA and 15.4 mg/100 mL bacitracin at pH 7.2), adapted from Harper et al. (Br. J. Pharmacol. 1996, 118:1717-1726). The thawed pellets were homogenized using a Polytron PT-10 (7×1 s). The homogenates were centrifuged for 5 min at 1500 rpm (600×g), and the resulting pellets were discarded. The supernatants were re-centrifuged in order to collect the receptor-membrane pellets (25 min 15,000 rpm; 39,800×g), which were re-suspended in buffer A.
All assays were conducted in 96-well plates (GF/B millipore filter plates) using buffer A, with 0.3 μM PD-134,308, for the dilutions. The CCK-2 receptor ligand was included to eliminate the contribution of this receptor subtype to the binding. For the optimal cell number determination experiments 20 pM [^125I]-BH-CCK-8S (50 μL 60 pM solution) was incubated with a range of cell concentrations (2.5×105 to 12.5×10^5 cells/well) in a total volume of 150 μL. Total binding of [^125I]-BH-CCK-8S was determined in the presence of 15 μL of buffer A. Non-specific binding of [^125I]-BH-CCK-8S was determined in the presence of 15 μL of 100 μM 2-naphthalenesulphonyl L-aspartyl-(2-phenethyl)amide (2-NAP: see R. A. Hull et al. Br. J. Pharmacol. 1993, 108:734-740), a CCK-1 receptor selective antagonist that is structurally unrelated to the radioligand [^125I]-BH-CCK-8S. The assay preparation was incubated for 1 h at 21±3° C., and then the assay was terminated upon rapid filtration of the preparation under reduced pressure. The loaded filters were washed three times using undiluted PBS (100 μL), and then the residues were transferred to 5 mL scintillation tubes. Bound radioactivity was determined using a gamma counter (count time=1 min). From these experiments a cell concentration of 1 pellet in 40 mL of buffer (2.5×10^6 cells/mL) was chosen for use in other assays (below). To validate the radioligand concentration and incubation time for the assay, saturation and kinetic binding studies were also conducted (see M. F. Morton, The Pharmacological Characterization of Cholecystokinin Receptors in the Human Gastrointestinal Tract. PhD Thesis, University of London, 2000). The affinity of novel compounds was estimated by incubating membrane preparations with 15 μL of competing ligand (0.1 pM-1 mM) for 60 min at 21±3° C. The assay was then terminated according to the procedure outlined above.
The pKi values were determined using the equation of Y.-C. Cheng and W. H. Prusoff (Biochem. Pharmacol. 1973, 22(23):3099-3108):
[formula] To circumvent problems associated with computer-assisted data analysis of compounds with low affinity, the data obtained in the current study were weighted according to a method described by Morton (2000). In brief, 100% and 0% specific binding were defined independently using total binding and binding obtained in the presence of a high concentration of the reference antagonist, 2-NAP.
The compound `Cc1ccc(/C(=C/c2nc(-c3cc(Cl)ccc3Cl)c(-c3ccc4c(c3)OCO4)[nH]2)C(=O)O)cc1` [Example 6, (Z)-3-[5-Benzo[1,3]dioxol-5-yl-4-(2,5-dichloro-phenyl)-1H-imidazol-2-yl]-2-p-tolyl-acrylic acid] showed an inhibition constant Ki of 3.98 nM. In other words, the single-digit nanomolar range.
`COc1ccc(-c2[nH]c(CC(C(=O)O)c3cccc(C(F)(F)F)c3)nc2-c2ccc(Cl)c(Cl)c2)cc1` (centres unmarked) [Example 27, 3-[4-(3,4-Dichloro-phenyl)-5-(4-methoxy-phenyl)-1H-imidazol-2-yl]-2-(3-trifluoromethyl-phenyl)-propionic acid] had a Ki of 50.1 nM.
The same measure for `COc1ccc(-c2[nH]c(/C=C(/C(=O)O)c3cccc(C(F)(F)F)c3)nc2-c2ccc(Cl)c(Cl)c2)cc1` [Example 16, (E)-3-[4-(3,4-Dichloro-phenyl)-5-(4-methoxy-phenyl)-1H-imidazol-2-yl]-2-(3-trifluoromethyl-phenyl)-acrylic acid]: 79.4 nM.
The result for `COc1ccc(-c2[nH]c(CC(C(=O)O)c3cccc4ccccc34)nc2-c2ccc(Cl)c(Cl)c2)cc1` (centres unmarked) [Example 26, 3-[4-(3,4-Dichloro-phenyl)-5-(4-methoxy-phenyl)-1H-imidazol-2-yl]-2-naphthalen-1-yl-propionic acid] reads 39.8 nM; that for `O=C(O)C(Cc1nc(-c2ccccc2Cl)c(-c2ccccc2Cl)[nH]1)c1cccc2ccccc12` (centres unmarked) [Example 32, 3-[4,5-Bis-(2-chloro-phenyl)-1H-imidazol-2-yl]-2-naphthalen-1-yl-propionic acid], 398 nM; that for `Cc1cccc(/C(=C\c2nc(-c3cc(Cl)ccc3Cl)c(-c3ccc4c(c3)OCO4)[nH]2)C(=O)O)c1` [Example 19, (E)-3-[5-Benzo[1,3]dioxol-5-yl-4-(2,5-dichloro-phenyl)-1H-imidazol-2-yl]-2-m-tolyl-acrylic acid], 15.8 nM.
`Cc1ccc(-c2nc(CC(C(=O)O)c3cccc(C)c3)n(C)c2-c2ccc(C)cc2)cc1` (centres unmarked) [Example 31, 3-(1-Methyl-4,5-di-p-tolyl-1H-imidazol-2-yl)-2-m-tolyl-propionic acid]: the Ki is 39.8 nM. Against the preceding compound, the Ki is about 2.5-fold higher.
`COc1ccc(-c2[nH]c(/C=C(\C(=O)O)c3cccc(C)c3)nc2-c2ccc(Cl)c(Cl)c2)cc1` [Example 9, (Z)-3-[4-(3,4-Dichloro-phenyl)-5-(4-methoxy-phenyl)-1H-imidazol-2-yl]-2-m-tolyl-acrylic acid]: the Ki was 7.94 nM.
The result for `COc1ccc(-c2[nH]c(/C=C(/C(=O)O)c3ccc(C)cc3)nc2-c2ccc(Cl)c(Cl)c2)cc1` [Example 14, (E)-3-[4-(3,4-Dichloro-phenyl)-5-(4-methoxy-phenyl)-1H-imidazol-2-yl]-2-p-tolyl-acrylic acid] reads 100 nM; that for `Cc1ccc(/C(=C\c2nc(-c3cc(Cl)ccc3Cl)c(-c3ccc4c(c3)OCO4)[nH]2)C(=O)O)cc1` [Example 22, (E)-3-[5-Benzo[1,3]dioxol-5-yl-4-(2,5-dichloro-phenyl)-1H-imidazol-2-yl]-2-p-tolyl-acrylic acid], 25.1 nM.
Consider `COc1cccc(-c2nc(CC(C(=O)O)c3cccc4ccccc34)[nH]c2-c2cccc(OC)c2)c1` (centres unmarked) [Example 33, 3-[4,5-Bis-(3-methoxy-phenyl)-1H-imidazol-2-yl]-2-naphthalen-1-yl-propionic acid], for which the affinity, expressed as Ki, was 2510 nM.
